Legend:
Format in all cases: in vivo
Stellaria media [1] = test: Pre-emergence herbicidal action against harmful plants; settings: 504 h, application rate 320 g/ha, scored visually after 3 weeks vs untreated controls, read-out: herbicidal activity in percent
Source text: (§1) 1. Pre-Emergence Herbicidal Action Against Harmful Plants
(§2) Seeds of monocotyledonous and dicotyledonous weed plants and crop plants are laid out in wood-fiber pots in sandy loam and covered with soil. The compounds of the invention, formulated in the form of wettable powders (WP) or as emulsion concentrates (EC), are then applied to the surface of the covering soil in the form of an aqueous suspension or emulsion at a water application rate equating to 600 to 800 l/ha, with addition of 0.2% wetting agent. After the treatment, the pots are placed in a greenhouse and kept under good growth conditions for the trial plants. The damage to the test plants is scored visually after a test period of 3 weeks by comparison with untreated controls (herbicidal activity in percent (%): 100% activity=the plants have died, 0% activity=like control plants). Here, for example, the compounds Nos. 1-145, 1-385, 3-385, 4-145, 4-385, 6-385, 7-145, 7-385 and 9-385, at an application rate of 320 g/ha, each show an activity of at least 80% against Stellaria media and Veronica persica.

Veronica persica = test: as above; settings: 504 h, application rate 320 g/ha, scored visually after 3 weeks vs untreated controls, read-out: herbicidal activity in percent
Source text: as §1, §2

Amaranthus retroflexus = test: Post-emergence herbicidal action against harmful plants; settings: 504 h, application rate 80 g/ha, assessed visually after about 3 weeks vs untreated controls, read-out: herbicidal action in percent
Experimental: (§3) 2. Post-Emergence Herbicidal Action Against Harmful Plants
(§4) Seeds of monocotyledonous and dicotyledonous weed and crop plants are laid out in sandy loam soil in wood-fiber pots, covered with soil and cultivated in a greenhouse under good growth conditions. 2 to 3 weeks after sowing, the test plants are treated at the one-leaf stage. The compounds of the invention, formulated in the form of wettable powders (WP) or as emulsion concentrates (EC), are then sprayed onto the green parts of the plants in the form of an aqueous suspension or emulsion at a water application rate equating to 600 to 800 l/ha, with addition of 0.2% wetting agent. After the test plants have been left to stand in the greenhouse under optimal growth conditions for about 3 weeks, the action of the preparations is assessed visually in comparison to untreated controls (herbicidal action in percent (%): 100% activity=the plants have died, 0% activity=like control plants). Here, for example, the compounds Nos. 1-145, 1-385, 3-385, 4-145, 4-385, 6-385, 7-145, 7-385 and 9-385, at an application rate of 80 g/ha, each show an activity of at least 80% against Stellaria media and Amaranthus retroflexus.

Stellaria media [2] = test: as above; settings: 504 h, application rate 80 g/ha, assessed visually after about 3 weeks vs untreated controls, read-out: herbicidal action in percent
Experimental: as §3, §4

[3] = tested on: Alopecurus myosuroides (ALOMY); test: Comparative experiment in pre-emergence; settings: dosage 80 g/ha, 100% = plants have died, 0% = like control plants
Source text: as §2
3. Comparative Experiment in Pre-Emergence
For comparative purposes, the herbicidal activity of some compounds according to the invention and the most structurally similar compounds known from the prior art were tested.

| SMILES | pest or weed control at 320 g/ha (Stellaria media [1]) [%] | pest or weed control at 320 g/ha (Veronica persica) [%] | pest or weed control at 80 g/ha (Amaranthus retroflexus) [%] | pest or weed control at 80 g/ha (Stellaria media [2]) [%] | Herbicidal activity against ALOMY [3] [%] |
| --- | --- | --- | --- | --- | --- |
| CCOC(=O)OC(C)n1nc(C)oc1=NC(=O)c1ccc(C(F)(F)F)c(S(C)(=O)=O)c1C (stereo not shown) [Compound No. 4-145, ethyl 1-[5-methyl-2-{[2-methyl-3-(methylsulfonyl)-4-(trifluoromethyl)benzoyl]imino}-1,3,4-oxadiazol-3(2H)-yl]ethyl carbonate] | ≥ 80 | ≥ 80 | ≥ 80 | ≥ 80 |  |
| CCOC(=O)OC(C)N(C(=O)c1ccc(C(F)(F)F)c([S+](C)[O-])c1Cl)c1nnc(C)o1 (stereo not shown) [Compound No. 1-385, 1-{[2-chloro-3-(methylsulfinyl)-4-(trifluoromethyl)benzoyl](5-methyl-1,3,4-oxadiazol-2-yl)amino}ethyl ethyl carbonate] | ≥ 80 | ≥ 80 | ≥ 80 | ≥ 80 |  |
| CCOC(=O)OC(C)OC(=Nc1nnc(C)o1)c1ccc(C(F)(F)F)c(S(C)(=O)=O)c1C (stereo not shown) [Compound No. 7-145, 1-[(ethoxycarbonyl)oxy]ethyl-2-methyl-N-(5-methyl-1,3,4-oxadiazol-2-yl)-3-(methylsulfonyl)-4-(trifluoromethyl)benzenecarboximidate] | ≥ 80 | ≥ 80 | ≥ 80 | ≥ 80 |  |
| CCOC(=O)OC(C)OC(=Nc1nnc(C)o1)c1ccc(C(F)(F)F)c([S+](C)[O-])c1Cl (stereo not shown) [Compound No. 7-385, 1-[(ethoxycarbonyl)oxy]ethyl-2-chloro-N-(5-methyl-1,3,4-oxadiazol-2-yl)-3-(methylsulfinyl)-4-(trifluoromethyl)benzenecarboximidate] | ≥ 80 | ≥ 80 | ≥ 80 | ≥ 80 | 90 |
| CCOC(=O)OC(C)N(C(=O)c1ccc(C(F)(F)F)c(S(C)(=O)=O)c1C)c1nnc(C)o1 (stereo not shown) [Compound No. 1-145, ethyl 1-{[2-methyl-3-(methylsulfonyl)-4-(trifluoromethyl)benzoyl](5-methyl-1,3,4-oxadiazol-2-yl)amino}ethyl carbonate] | ≥ 80 | ≥ 80 | ≥ 80 | ≥ 80 | 100 |
| CCOC(=O)OC(C)n1nc(C)oc1=NC(=O)c1ccc(C(F)(F)F)c([S+](C)[O-])c1Cl (stereo not shown) [Compound No. 4-385, ethyl 1-[5-methyl-2-{[2-chloro-3-(methylsulfinyl)-4-(trifluoromethyl)benzoyl]imino}-1,3,4-oxadiazol-3(2H)-yl]ethyl carbonate] | ≥ 80 | ≥ 80 | ≥ 80 | ≥ 80 |  |
| Cc1nn(C(C)OC(=O)OC2CCCCC2)c(=NC(=O)c2ccc(C(F)(F)F)c([S+](C)[O-])c2Cl)o1 (stereo not shown) [Compound No. 6-385, 1-[2-{[2-chloro-3-(methylsulfinyl)-4-(trifluoromethyl)benzoyl]imino}-5-methyl-1,3,4-oxadiazol-3(2H)-yl]ethyl cyclohexyl carbonate] | ≥ 80 | ≥ 80 | ≥ 80 | ≥ 80 |  |
| Cc1nnc(N(C(=O)c2ccc(C(F)(F)F)c([S+](C)[O-])c2Cl)C(C)OC(=O)OC2CCCCC2)o1 (stereo not shown) [Compound No. 3-385, 1-{[2-chloro-3-(methylsulfinyl)-4-(trifluoromethyl)benzoyl](5-methyl-1,3,4-oxadiazol-2-yl)amino}ethyl cyclohexyl carbonate] | ≥ 80 | ≥ 80 | ≥ 80 | ≥ 80 | 100 |
| Cc1nnc(N=C(OC(C)OC(=O)OC2CCCCC2)c2ccc(C(F)(F)F)c([S+](C)[O-])c2Cl)o1 (stereo not shown) [Compound No. 9-385, 1-{[(cyclohexyloxy)carbonyl]oxy}ethyl-2-chloro-N-(5-methyl-1,3,4-oxadiazol-2-yl)-3-(methylsulfinyl)-4-(trifluoromethyl)benzenecarboximidate] | ≥ 80 | ≥ 80 | ≥ 80 | ≥ 80 | 90 |
